PMC6522510 (Nature Communications, 2019)
Like-named read-outs stand apart in the source and are kept apart here.

Tests used:
[1] = system: MOLM-13; assay: Secondary dose-response HTS, Cell Titer Glo; format: cell-based, human; conditions: secondary high-throughput screen, MOLM-13; for EC50: Homo sapiens, read-out: average effective concentration, MOLM-13
[2] = system: MV4-11; assay: Secondary dose-response HTS, Cell Titer Glo; format: cell-based, human; conditions: secondary high-throughput screen, MV4-11; for EC50: Homo sapiens, read-out: average effective concentration, MV4-11
[3] = system: CHRF288-11; assay: Secondary dose-response HTS, Cell Titer Glo; format: cell-based, human; conditions: secondary high-throughput screen, CHRF288-11; for EC50: read-out: average effective concentration, CHRF288-11
[4] = system: CMK; assay: Secondary dose-response HTS, Cell Titer Glo; format: cell-based, human; conditions: CMK; for EC50: read-out: average effective concentration, CMK
[5] = system: CMS; assay: Secondary dose-response HTS, Cell Titer Glo; format: cell-based, human; conditions: for EC50: read-out: average effective concentration, CMS
[6] = system: M07e; assay: Secondary dose-response HTS, Cell Titer Glo; format: cell-based, human; conditions: secondary high-throughput screen; for EC50: Homo sapiens, M-07e, read-out: average effective concentration, M07e
[7] = system: ML2; assay: Secondary dose-response HTS, Cell Titer Glo; format: cell-based, human; conditions: secondary high-throughput screen, ML-2; for EC50: read-out: average effective concentration, ML-2
[8] = system: U937; assay: Secondary dose-response HTS, Cell Titer Glo; format: cell-based, human; conditions: secondary high-throughput screen, U937; for EC50: read-out: average effective concentration, U937
[9] = system: MV4-11; assay: cells; design: species or system AML cell lines (8); Secondary HTS, 10-point dose-response in triplicate, Cell Titer Glo viability, four-parameter fit EC50; conditions: Homo sapiens, MV4-11, 72 h, read-out: MV4-11
[10] = secondary high-throughput screen
[11] = secondary high-throughput screen, CMS
[12] = Homo sapiens, HTS, secondary high-throughput screen, CMS
[13] = Homo sapiens, secondary high-throughput screen

EC50 [1] [µM]	EC50 ([8]; Homo sapiens, U-937) [µM]	Compound	average effective concentration, MOLM-13 [1]	average effective concentration, MV4-11 [2]	average effective concentration, CHRF288-11 [3]	average effective concentration, CMK [4, 10]	average effective concentration, CMS [5, 11]	average effective concentration, M07e ([6]; M07e)	average effective concentration, U937 [8]	average effective concentration, ML-2 [7]	EC50 ([3]; Homo sapiens, HTS) [µM]	EC50 ([7]; Homo sapiens) [µM]	other results
		C[n+]1c2cc(N)ccc2cc2ccc(N)cc21	Inactive	Inactive	Inactive	Inactive	Inactive	Inactive	Inactive				EC50 [7]: 7.7 µM
		NC(=O)C1CCCc2c1[nH]c1ccc(Cl)cc21 (stereo not drawn)	Inactive	Inactive	Inactive	Inactive	Inactive	Inactive	Inactive	Inactive			
		1-NA-PP1 [Compound 1-NA-PP1]	Inactive	Inactive	Inactive		Inactive		Inactive	Inactive			EC50 [4, 10]: 2.2 µM; average effective concentration, M07e ([6]; […]): Inactive
		CN(N=O)C(=O)N[C@H]1C(O)O[C@H](CO)[C@@H](O)[C@@H]1O (mixture of isomers) [STREPTOZOSIN]	Inactive	Inactive	Inactive	Inactive	Inactive	Inactive	Inactive	Inactive			
		N[C@@H]1C[C@H]1c1ccccc1 (racemic) [TRANYLCYPROMINE]	Inactive	Inactive	Inactive		Inactive	Inactive	Inactive	Inactive			
		CC1CCCCCC(=O)c2c(O)cc(O)cc2CC(=O)O1 (single isomer, unassigned; (-)) [(-)-CURVULARIN]	Inactive	Inactive									EC50 [3]: 4.7 µM; EC50 [4, 10]: 1.5 µM; EC50 [5, 11]: 0.32 µM; average effective concentration, M07e ([6]; […]): Inactive; EC50 [8]: 0.82 µM
		O=C(O)c1ccnc(C(=O)O)c1 [2,4-PDAC]	Inactive	Inactive	Inactive	Inactive	Inactive	Inactive	Inactive	Inactive			
		[NH4+].[NH4+].[SH-].[SH-].[S]=[Mo]=[S] [AMMONIUM TETRATHIOMOLYBDATE]	Inactive	Inactive	Inactive		Inactive	Inactive	Inactive	Inactive			
		O=[As]O[As]=O (stereo not drawn) [ARSENIC TRIOXIDE]	Inactive	Inactive	Inactive		Inactive		Inactive	Inactive			average effective concentration, M07e ([6]; […]): Inactive
		N[C@@H]1CCCN(c2c(/C=C3\SC(=O)NC3=O)cccc2-c2ccccc2)C1 [AZD1208]	Inactive	Inactive		Inactive	Inactive	Inactive	Inactive	Inactive			
2.5	2	COc1cc2nc(N3CCCN(C)CC3)nc(NC3CCN(Cc4ccccc4)CC3)c2cc1OC [BIX 01294]									4.4	3.6	EC50 [2]: 3 µM; EC50 [5, 12]: > 10 µM; EC50 ([6]; M07e): > 10 µM
1.2	7.6	N#CCNC(=O)c1ccc(-c2ccnc(Nc3ccc(N4CCOCC4)cc3)n2)cc1 [CYT-387]									3.8	> 10	EC50 ([4]; Homo sapiens): 1.8 µM; EC50 ([5]; Homo sapiens, HTS): 0.34 µM; EC50 ([6]; M07e): 0.27 µM; EC50 [9]: > 10 µM
2.2	1	Nc1ncnc2c1nc(Cl)n2[C@@H]1O[C@H](CO)[C@@H](O)[C@H]1O [Compound 8-CHLOROADENOSINE]									1.2	2.8	EC50 [2]: 0.25 µM; EC50 ([5]; Homo sapiens, HTS): 4.4 µM; EC50 ([6]; M07e): 0.001 µM
		NC1CC1c1cc(F)cc(F)c1OCc1ccccc1 (stereo not drawn) [Compound S2101]	Inactive	Inactive	Inactive		Inactive	Inactive	Inactive	Inactive			
		OCCN1CCN(CCCN2c3ccccc3Sc3ccc(C(F)(F)F)cc32)CC1 [FLUFENAZINE]	Inactive	Inactive	Inactive	Inactive	Inactive	Inactive	Inactive				
		CSCC[C@@H](NC(=O)c1ccc(CNCc2cnc[nH]2)cc1-c1ccccc1C)C(=O)OCc1ccccc1 [FTI-2628]	Inactive	Inactive	Inactive	Inactive	Inactive	Inactive		Inactive			
		CSCC[C@H](NC(=O)c1ccc(NC(=O)[C@@H](N)CS)cc1)C(=O)O [H-CYS-4-ABZ-MET-OH]	Inactive	Inactive	Inactive	Inactive	Inactive	Inactive		Inactive			
		O=C(O)c1ccc(O)c2ncccc12 [IOX 1]	Inactive	Inactive	Inactive		Inactive	Inactive	Inactive	Inactive			
0.31	0.28	C1=C/COCc2cc(ccc2OCCN2CCCC2)Nc2nccc(n2)-c2cccc(c2)COC/1 [PACRITINIB]									2.4	0.13	EC50 ([4]; Homo sapiens): 5 µM; EC50 ([5]; Homo sapiens, HTS): 2 µM; EC50 ([6]; M07e): 6.7 µM; EC50 [9]: > 10 µM
2	3.5	CN(C)Cc1ccc(S(=O)(=O)n2ccc(/C=C/C(=O)NO)c2)cc1 [RESMINOSTAT]									4.7	5	EC50 [4, 13]: 1.7 µM; EC50 [5, 12]: 3.1 µM; EC50 ([6]; M07e): 1.1 µM; EC50 [9]: > 10 µM
		Fc1ccc(CNc2ncnc3ccc(F)cc23)cc1 [SPAUTIN-1]	Inactive	Inactive	Inactive	Inactive	Inactive			Inactive			average effective concentration, M07e ([6]; […]): Inactive
2.2	> 10	CC(=O)Nc1ccc(C(=O)Nc2ccccc2N)cc1 [TACEDINALINE]									> 10	> 10	EC50 [4, 13]: 6.8 µM; EC50 [5, 12]: 9 µM; EC50 ([6]; M07e): 4.1 µM; EC50 [9]: > 10 µM

Compound	EC50 [1] [µM]	EC50 ([8]; Homo sapiens, U-937) [µM]	average effective concentration, MOLM-13 [1]	average effective concentration, MV4-11 [2]	average effective concentration, CHRF288-11 [3]	average effective concentration, CMK [4, 10]	average effective concentration, CMS [5, 11]	average effective concentration, M07e ([6]; M07e)	average effective concentration, U937 [8]	average effective concentration, ML-2 [7]	EC50 ([3]; Homo sapiens, HTS) [µM]	EC50 ([7]; Homo sapiens) [µM]	other results
Nc1cc(F)ccc1NC(=O)/C=C/c1cnn(C/C=C/c2ccccc2)c1 [RGFP966]	> 10	> 10									7.3	> 10	EC50 [4, 13]: 6 µM; EC50 [5, 12]: 9.3 µM; EC50 ([6]; […]): 10 µM; EC50 [9]: > 10 µM
